Assay [1] addresses Endoplasmic reticulum aminopeptidase 1 (Homo sapiens, UniProt Q9NZ08). Description: Inhibition of human ERAP1 preincubated for 30 to 60 mins followed by addition of Leu-AMC as substrate measured for 15 mins by spectrofluorimetric method.
Assay [2] has as its target Endoplasmic reticulum aminopeptidase 2 (Homo sapiens, UniProt Q6P179). The assay is described as follows: Inhibition of human ERAP2 preincubated for 30 to 60 mins followed by addition of Arg-AMC as substrate measured for 15 mins by spectrofluorimetric method.
A short description of assay [3]: Inhibition of Plasmodium falciparum APN preincubated for 30 mins followed by addition of L-Arg-ACC as substrate measured for 15 to 30 mins by fluorescence analysis.

Sequence of Endoplasmic reticulum aminopeptidase 2 (Q6P179 whole entry): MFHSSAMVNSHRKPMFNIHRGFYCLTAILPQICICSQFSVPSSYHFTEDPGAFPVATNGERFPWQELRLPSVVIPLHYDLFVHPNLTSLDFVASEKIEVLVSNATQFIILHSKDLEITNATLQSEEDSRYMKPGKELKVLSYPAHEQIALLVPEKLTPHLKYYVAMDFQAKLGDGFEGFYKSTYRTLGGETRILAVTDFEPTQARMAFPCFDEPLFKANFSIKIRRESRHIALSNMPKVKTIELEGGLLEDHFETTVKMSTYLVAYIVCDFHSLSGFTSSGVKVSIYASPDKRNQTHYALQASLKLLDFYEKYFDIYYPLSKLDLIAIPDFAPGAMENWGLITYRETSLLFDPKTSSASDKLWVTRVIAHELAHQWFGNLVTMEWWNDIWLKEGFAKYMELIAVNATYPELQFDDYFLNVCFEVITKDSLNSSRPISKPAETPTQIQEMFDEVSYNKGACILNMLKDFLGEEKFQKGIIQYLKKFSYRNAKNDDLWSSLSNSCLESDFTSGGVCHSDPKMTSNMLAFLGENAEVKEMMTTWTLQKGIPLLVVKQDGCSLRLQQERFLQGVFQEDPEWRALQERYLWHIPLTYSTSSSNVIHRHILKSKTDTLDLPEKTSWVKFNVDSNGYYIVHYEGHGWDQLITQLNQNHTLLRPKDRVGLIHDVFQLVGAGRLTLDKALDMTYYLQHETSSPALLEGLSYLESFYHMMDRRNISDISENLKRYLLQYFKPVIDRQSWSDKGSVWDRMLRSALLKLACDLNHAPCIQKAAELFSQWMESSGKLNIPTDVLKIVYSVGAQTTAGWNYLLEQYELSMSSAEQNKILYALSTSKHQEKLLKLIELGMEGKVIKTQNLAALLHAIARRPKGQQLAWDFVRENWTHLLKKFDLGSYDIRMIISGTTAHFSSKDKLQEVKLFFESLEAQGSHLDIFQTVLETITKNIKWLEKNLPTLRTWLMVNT
Sequence of Endoplasmic reticulum aminopeptidase 1 (Q9NZ08 whole entry): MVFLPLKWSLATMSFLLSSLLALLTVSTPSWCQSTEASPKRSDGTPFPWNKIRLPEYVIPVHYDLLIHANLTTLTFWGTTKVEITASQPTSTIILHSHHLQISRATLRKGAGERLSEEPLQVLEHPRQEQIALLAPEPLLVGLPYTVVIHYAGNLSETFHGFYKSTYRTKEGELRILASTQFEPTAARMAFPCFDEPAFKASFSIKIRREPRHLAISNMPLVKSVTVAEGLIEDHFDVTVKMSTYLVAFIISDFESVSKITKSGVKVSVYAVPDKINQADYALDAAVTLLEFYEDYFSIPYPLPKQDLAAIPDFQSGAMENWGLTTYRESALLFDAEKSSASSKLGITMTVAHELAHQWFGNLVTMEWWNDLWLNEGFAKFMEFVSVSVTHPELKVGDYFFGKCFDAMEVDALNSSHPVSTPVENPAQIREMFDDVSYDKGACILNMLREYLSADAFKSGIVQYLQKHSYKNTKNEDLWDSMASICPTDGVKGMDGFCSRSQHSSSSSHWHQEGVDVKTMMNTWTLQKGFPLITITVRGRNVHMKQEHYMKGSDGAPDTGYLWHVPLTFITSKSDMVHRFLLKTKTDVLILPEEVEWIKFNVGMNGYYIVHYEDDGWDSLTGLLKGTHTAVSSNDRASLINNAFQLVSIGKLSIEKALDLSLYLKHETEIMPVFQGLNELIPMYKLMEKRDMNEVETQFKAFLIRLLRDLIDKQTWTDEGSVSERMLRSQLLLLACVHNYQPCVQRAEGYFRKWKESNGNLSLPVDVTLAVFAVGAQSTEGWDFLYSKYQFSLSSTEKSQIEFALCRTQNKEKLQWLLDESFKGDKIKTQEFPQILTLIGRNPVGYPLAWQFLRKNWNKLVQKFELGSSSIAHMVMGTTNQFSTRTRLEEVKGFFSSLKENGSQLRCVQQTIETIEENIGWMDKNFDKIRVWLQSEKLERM

One may read the Ki as a measure of affinity in units of concentration, obtained from inhibition or displacement. High values mean lower affinity, low ones higher affinity. Regarding `CC(NCC(N)P(=O)(O)O)c1ccccc1` (configuration not stated), the Ki in assay [1] and in assay [2] was more than 250 µM throughout.

In the case of `NCC(N)P(=O)(O)O` (configuration not stated), the Ki in assay [1] was more than 250 µM.

In the case of `NCc1cccc(CC(CP(=O)(O)C(N)CCc2ccccc2)C(=O)O)c1` (configuration not stated), in assay [2], the inhibition constant (Ki) is more than 250 µM.

`NC(CNC1CCCCCC1)P(=O)(O)O` (configuration not stated) gave an inhibition constant Ki in assay [1] of more than 250 µM.

Turning to `NC(CNCC1CCCO1)P(=O)(O)O` (configuration not stated), the Ki in assay [1] and in assay [2] was more than 250 µM each time.

With `NC(CCc1ccccc1)P(=O)(O)CC(Cc1ccccc1)C(=O)O` (configuration not stated), the figures for the Ki in assay [3], in assay [1] and in assay [2] were 0.078 µM, 19.1 µM and 0.35 µM, respectively.

Turning to `NCc1ccc(CNCC(N)P(=O)(O)O)cc1` (configuration not stated), the inhibition constant Ki in assay [1] is more than 250 µM.

For `NC(CNCc1ccccc1)P(=O)(O)O` (configuration not stated), the inhibition constant Ki in assay [1] is more than 250 µM; in assay [2] it was 106 µM.

Take `CN(C)CCNCC(N)P(=O)(O)O` (configuration not stated): the Ki in assay [1] and in assay [2] was more than 250 µM each time.

As for `CC(C)C[C@H](N)P(=O)(O)O` [LEUCINE PHOSPHONIC ACID], the Ki in assay [1] is 5.08 µM; in assay [2], more than 250 µM.

Turning to `NCC(N)P(=O)(O)CC(Cc1ccccc1)C(=O)O` (configuration not stated), in assay [1], the Ki was more than 250 µM.

For the molecule `CC(C)C[C@@H](N)P(=O)(O)O`, the values for the inhibitory constant (Ki) in assay [1] and in assay [2] were 249 µM and more than 250 µM, respectively.

Regarding `NC(CNCC1CCNCC1)P(=O)(O)O` (configuration not stated), the inhibitory constant (Ki) in assay [1] was more than 250 µM.

Consider `CC(C)(C)c1ccc(CNCC(N)P(=O)(O)O)cc1` (configuration not stated), for which, in assay [1], the inhibition constant (Ki) was more than 250 µM.

Take `NCCNCC(N)P(=O)(O)O` (configuration not stated): the inhibition constant (Ki) in assay [1] and in assay [2] was more than 250 µM in each case.

With `N[C@@H](CCc1ccccc1)P(=O)(O)C[C@@H](Cc1ccccc1)C(=O)O` (mixture of isomers), the figures for the Ki in assay [1] and in assay [2] were 6.27 µM and 1.03 µM, respectively.

In turn, `COc1ccc(CNCC(N)P(=O)(O)O)cc1` (configuration not stated) displayed an inhibition constant (Ki) in assay [1] of more than 250 µM.

Take `CCCNCC(N)P(=O)(O)O` (configuration not stated): the inhibition constant (Ki) in assay [1] and in assay [2] was more than 250 µM throughout.

As to `NC(CN1CCOCC1)P(=O)(O)O` (configuration not stated), the inhibitory constant (Ki) in assay [1] and in assay [2] was more than 250 µM throughout.

`COc1ccc(CCNCC(N)P(=O)(O)O)cc1` (configuration not stated) showed an inhibitory constant (Ki) in assay [1] of more than 250 µM.

Turning to `NCc1cccc(CC(CP(=O)(O)C(N)CCc2cccnc2)C(=O)O)c1` (configuration not stated), in assay [2], the Ki is more than 250 µM.

Take `COc1ccc(CCNCC(N)P(=O)(O)CC(Cc2ccccc2)C(=O)O)cc1` (configuration not stated): the Ki in assay [1] was more than 250 µM.

In the case of `Cc1cc(C)cc(CC(CP(=O)(O)C(N)CCc2ccccc2)C(=O)O)c1` (configuration not stated), the Ki in assay [1] and in assay [2] was more than 250 µM in each case.

In the case of `CCCNCC(N)P(=O)(O)CC(Cc1ccccc1)C(=O)O` (configuration not stated), the Ki in assay [1] was more than 250 µM.

For `CNCC(N)P(=O)(O)O` (configuration not stated), the inhibitory constant (Ki) in assay [1] and in assay [2] was more than 250 µM each time.

`NC(CNCCc1ccccc1)P(=O)(O)O` (configuration not stated) registered a Ki in assay [1] of more than 250 µM.

Molecule `NC(CNC1CCCCC1)P(=O)(O)CC(Cc1ccccc1)C(=O)O` (configuration not stated) had a Ki in assay [1] of more than 250 µM.

For `NC(CN1CCCCC1)P(=O)(O)O` (configuration not stated), the Ki in assay [1] was more than 250 µM.

In assay [1], `NC(CNC1CCCCC1)P(=O)(O)O` (configuration not stated) yielded a Ki of more than 250 µM.

Regarding `Nc1ccc(CNCC(N)P(=O)(O)O)cc1` (configuration not stated), the inhibition constant (Ki) in assay [1] was more than 250 µM.

In assay [1], `NC1CCCCC1NCC(N)P(=O)(O)O` (configuration not stated) displayed an inhibition constant Ki of more than 250 µM.

`CC(C)CNCC(N)P(=O)(O)CC(Cc1ccccc1)C(=O)O` (configuration not stated): the Ki in assay [1] is more than 250 µM.

Regarding `CCCCCCNCC(N)P(=O)(O)O` (configuration not stated), the Ki in assay [1] is more than 250 µM.

As for `NC(CNC1CCCCCC1)P(=O)(O)CC(Cc1ccccc1)C(=O)O` (configuration not stated), in assay [1], the Ki is more than 250 µM.

Turning to `NC(CNCCN1CCNCC1)P(=O)(O)O` (configuration not stated), the Ki in assay [1] is more than 250 µM.

`NCc1ccc(CC(CP(=O)(O)C(N)CCc2ccccc2)C(=O)O)cc1` (configuration not stated) came in with an inhibition constant (Ki) in assay [2] of more than 250 µM.

For the molecule `NC(CCc1ccccc1)P(=O)(O)CC(Cc1ccc(O)cc1)C(=O)O` (configuration not stated), the Ki is 6.47 µM in assay [1] and 1.04 µM in assay [2].
